# Legend:
# [1] = tested on: HEL; test: Inhibitory effect on replication of DNA virus CMV (AD-169) on HEL cell line.; format: functional, cell-based; details: Homo sapiens
# [2] = tested on: HEL; test: Inhibitory effect on replication of DNA virus CMV (Davis) on HEL cell line.; format: functional, cell-based; details: Homo sapiens
# [3] = tested on: HeLa; test: Inhibitory effect on replication of RNA virus coxsB-4 in HeLa cell line.; format: functional, cell-based; details: Homo sapiens
# [4] = tested on: HeLa; test: Inhibitory effect on replication of RNA virus RSV in HeLa cell line; format: functional, cell-based; details: Homo sapiens
# [5] = tested on: HeLa; test: Inhibitory effect on replication of RNA virus VSV in HeLa cell line.; format: functional, cell-based; details: Homo sapiens
# [6] = tested on: HeLa; test: Inhibitory effect on replication of RNA virus cell morphology in HeLa cell line.; format: functional, cell-based; details: Homo sapiens
# [7] = tested on: MDCK; test: Inhibitory effect on replication of RNA virus cell morphology in MDCK cell line.; format: functional, cell-based; details: Canis lupus familiaris
# [8] = tested on: MT4; test: Inhibitory effect on replication of DNA virus RNA virus HIV-1 in MT-4 cell line.; format: functional, cell-based; details: Homo sapiens
# [9] = tested on: MT4; test: Inhibitory effect on replication of DNA virus RNA virus HIV-2 in MT-4 cell line.; format: functional, cell-based; details: Homo sapiens
# [10] = tested on: MT4; test: Inhibitory effect on replication of RNA virus cell growth in MT-4 cell line.; format: functional, cell-based; details: Homo sapiens
# [11] = tested on: PRK; test: Inhibitory effect on replication of DNA virus Cell morphology on PRK cell line; format: functional, cell-based; details: Oryctolagus cuniculus
# [12] = tested on: PRK; test: Inhibitory effect on replication of DNA virus VV on PRK cell line.; format: functional, cell-based; details: Oryctolagus cuniculus
# [13] = Inhibitory effect on replication of DNA virus HSV-1 (KOS) in PRK cell line.; format: functional, cell-based; details: Oryctolagus cuniculus
# [14] = Inhibitory effect on replication of DNA virus HSV-2 (G) in PRK cell line.; format: functional, cell-based; details: Oryctolagus cuniculus
# [15] = tested on: PRK; test: Inhibitory effect on replication of RNA virus VSV in PRK cell line.; format: functional, cell-based; details: Oryctolagus cuniculus
# [16] = tested on: PRK; test: Inhibitory effect on replication of RNA virus cell morphology in PRK cell line.; format: functional, cell-based; details: Oryctolagus cuniculus
# [17] = tested on: Vero; test: Inhibitory effect on replication of RNA virus coxsB-4 in Vero cell line; format: functional, cell-based; details: Chlorocebus sabaeus
# [18] = tested on: Vero; test: Inhibitory effect on replication of RNA virus measles on Vero cell line.; format: functional, cell-based; details: Chlorocebus sabaeus
# [19] = tested on: Vero; test: Inhibitory effect on replication of RNA virus reo-1 in Vero cell line.; format: functional, cell-based; details: Chlorocebus sabaeus
# [20] = tested on: Vero; test: Inhibitory effect on replication of RNA virus JV in Vero cell line.; format: functional, cell-based; details: Chlorocebus sabaeus
# [21] = tested on: Vero; test: Inhibitory effect on replication of RNA virus SFV in Vero cell line; format: functional, cell-based; details: Chlorocebus sabaeus
# [22] = tested on: Vero; test: Inhibitory effect on replication of RNA virus SV in Vero cell line.; format: functional, cell-based; details: Chlorocebus sabaeus
# [23] = tested on: Vero; test: Inhibitory effect on replication of RNA virus TV in Vero cell line.; format: functional, cell-based; details: Chlorocebus sabaeus
# [24] = tested on: Vero; test: Inhibitory effect on replication of RNA virus RNA synthesis in Vero cell line.; format: functional, cell-based; details: Chlorocebus sabaeus
# [25] = tested on: Vero; test: Inhibitory effect on replication of RNA virus cell morphology in Vero cell line.; format: functional, cell-based; details: Chlorocebus sabaeus
# [26] = tested on: Vero; test: Inhibitory effect on replication of RNA virus protein synthesis in Vero cell line.; format: functional, cell-based; details: Chlorocebus sabaeus
# [27] = tested on: Vero; test: Inhibitory effect on replication of RNA virus PV-3 in Vero cell line.; format: functional, cell-based; details: Chlorocebus sabaeus
# [28] = tested on: HeLa; test: cells; details: Homo sapiens
# [29] = tested on: MDCK; test: cells; details: Canis lupus familiaris
# [30] = tested on: MDCK; test: cells; details: Canis lupus familiaris; remark: listed apart in the source
# [31] = tested on: HEL; test: Inhibitory effect on replication of DNA virus Cell growth on HEL cell line.; format: functional, cell-based; details: Homo sapiens
# [32] = tested on: HEL; test: Inhibitory effect on replication of DNA virus TK-VZV (07-1) on HEL cell line.; format: functional, cell-based; details: Homo sapiens
# [33] = tested on: HEL; test: Inhibitory effect on replication of DNA virus TK-VZV (YSR) on HEL cell line.; format: functional, cell-based; details: Homo sapiens
# [34] = tested on: HEL; test: Inhibitory effect on replication of DNA virus VZV (Oka) on HEL cell line.; format: functional, cell-based; details: Homo sapiens
# [35] = tested on: HEL; test: Inhibitory effect on replication of DNA virus VZV (YS) on HEL cell line.; format: functional, cell-based; details: Homo sapiens
# [36] = tested on: MT4; test: Inhibitory effect on replication of RNA virus HIV-1 in MT-4 cell line.; format: functional, cell-based; details: Homo sapiens
# [37] = tested on: MT4; test: Inhibitory effect on replication of RNA virus HIV-2 in MT-4 cell line.; format: functional, cell-based; details: Homo sapiens
# [38] = tested on: Vero; test: Inhibitory effect on replication of virus protein synthesis in Vero cell line.; format: functional, cell-based; details: Chlorocebus sabaeus
# [39] = tested on: ESM; test: Inhibitory effect on replication of DNA virus Cell morphology on ESM cell line; format: functional, cell-based
# [40] = tested on: ESM; test: Inhibitory effect on replication of DNA virus HSV-1 (KOS) in ESM cell line; format: functional, cell-based
# [41] = tested on: ESM; test: Inhibitory effect on replication of DNA virus HSV-2 (G) in ESM cell line; format: functional, cell-based
# [42] = tested on: ESM; test: Inhibitory effect on replication of DNA virus TK-HSV-1 (B2006) on ESM cell line.; format: functional, cell-based
# [43] = tested on: ESM; test: Inhibitory effect on replication of DNA virus TK-HSV-1 (VMW 1837) on ESM cell line.; format: functional, cell-based
# [44] = tested on: ESM; test: Inhibitory effect on replication of DNA virus VV on ESM cell line.; format: functional, cell-based
# [45] = tested on: ESM; test: Inhibitory effect on replication of RNA virus VSV in ESM cell line.; format: functional, cell-based
# [46] = tested on: ESM; test: Inhibitory effect on replication of RNA virus cell morphology in ESM cell line.; format: functional, cell-based
# [47] = tested on: HeLa; test: Inhibitory effect on replication of DNA virus RNA virus cell morphology in HeLa cell line.; format: functional, cell-based; details: Homo sapiens
smiles,measurement,setting,value
C=CC1=C[C@@H](n2cnc3c(N)ncnc32)[C@H](O)[C@@H]1O,IC50,[1],18 µg/mL
same,IC50,[2],17 µg/mL
same,IC50,[3],> 400 µg/mL
same,IC50,[4],100 µg/mL
same,IC50,[5],300 µg/mL
same,IC50,[6],> 400 µg/mL
same,IC50,[7],> 100 µg/mL
same,IC50,[8],> 8 µg/mL
same,IC50,[9],> 8 µg/mL
same,IC50,[10],6 µg/mL
same,IC50,[11],> 400 µg/mL
same,IC50,[12],20 µg/mL
same,IC50,[13],> 200 µg/mL
same,IC50,[14],> 200 µg/mL
same,IC50,[15],20 µg/mL
same,IC50,[16],> 400 µg/mL
same,IC50,[17],> 200 µg/mL
same,IC50,[18],40 µg/mL
same,IC50,[19],70 µg/mL
same,IC50,[20],8 µg/mL
same,IC50,[21],> 200 µg/mL
same,IC50,[22],> 200 µg/mL
same,IC50,[23],10 µg/mL
same,IC50,[24],14 µg/mL
same,IC50,[25],400 µg/mL
same,IC50,[26],47 µg/mL
same,IC50,[27],40 µg/mL
same,IC50,[28],> 400 µg/mL
same,IC50,[29],> 100 µg/mL
same,IC50,[30],> 100 µg/mL
COCC1=C[C@@H](n2cnc3c(N)ncnc32)[C@H](O)[C@@H]1O,IC50,[1],40 µg/mL
same,IC50,[2],25 µg/mL
same,IC50,[31],200 µg/mL
same,IC50,[32],100 µg/mL
same,IC50,[33],60 µg/mL
same,IC50,[34],200 µg/mL
same,IC50,[35],300 µg/mL
same,IC50,[3],> 200 µg/mL
same,IC50,[4],100 µg/mL
same,IC50,[5],150 µg/mL
same,IC50,[6],> 400 µg/mL
same,IC50,[7],> 100 µg/mL
same,IC50,[36],> 40 µg/mL
same,IC50,[37],> 40 µg/mL
same,IC50,[10],45 µg/mL
same,IC50,[11],> 400 µg/mL
same,IC50,[12],20 µg/mL
same,IC50,[13],> 400 µg/mL
same,IC50,[14],> 400 µg/mL
same,IC50,[15],20 µg/mL
same,IC50,[16],> 400 µg/mL
same,IC50,[17],> 400 µg/mL
same,IC50,[18],40 µg/mL
same,IC50,[19],10 µg/mL
same,IC50,[20],20 µg/mL
same,IC50,[21],> 400 µg/mL
same,IC50,[22],70 µg/mL
same,IC50,[23],20 µg/mL
same,IC50,[25],400 µg/mL
same,IC50,[27],70 µg/mL
same,IC50,[28],> 200 µg/mL
same,IC50,[29],> 100 µg/mL
same,IC50,[30],> 100 µg/mL
Nc1ncnc2c1ncn2[C@@H]1C=C(CCl)[C@@H](O)[C@H]1O,IC50,[1],2 µg/mL
same,IC50,[2],0.7 µg/mL
same,IC50,[31],9 µg/mL
same,IC50,[32],1 µg/mL
same,IC50,[33],2 µg/mL
same,IC50,[34],2.5 µg/mL
same,IC50,[35],2 µg/mL
same,IC50,[3],> 40 µg/mL
same,IC50,[4],0.8 µg/mL
same,IC50,[7],10 µg/mL
same,IC50,[36],> 0.06 µg/mL
same,IC50,[10],0.2 µg/mL
same,IC50,[11],40 µg/mL
same,IC50,[13],> 20 µg/mL
same,IC50,[14],> 20 µg/mL
same,IC50,[15],0.7 µg/mL
same,IC50,[16],40 µg/mL
same,IC50,[17],> 40 µg/mL
same,IC50,[18],0.8 µg/mL
same,IC50,[19],0.7 µg/mL
same,IC50,[20],2 µg/mL
same,IC50,[21],> 40 µg/mL
same,IC50,[22],> 40 µg/mL
same,IC50,[23],2 µg/mL
same,IC50,[25],40 µg/mL
same,IC50,[26],0.8 µg/mL
same,IC50,[27],7 µg/mL
same,IC50,[38],5 µg/mL
same,IC50,[28],> 40 µg/mL
same,IC50,[29],> 10 µg/mL
same,IC50,[30],> 10 µg/mL
Nc1ncnc2c1ncn2[C@@H]1C=C(CO)[C@@H](O)[C@H]1O [NEOPLANOCIN A],IC50,[39],40 µg/mL
same,IC50,[40],20 µg/mL
same,IC50,[41],10 µg/mL
same,IC50,[42],4 µg/mL
same,IC50,[43],7 µg/mL
same,IC50,[44],0.2 µg/mL
same,IC50,[45],0.2 µg/mL
same,IC50,[46],40 µg/mL
same,IC50,[1],0.3 µg/mL
same,IC50,[2],0.2 µg/mL
same,IC50,[31],16 µg/mL
same,IC50,[32],5 µg/mL
same,IC50,[33],2 µg/mL
same,IC50,[34],8 µg/mL
same,IC50,[35],5 µg/mL
same,IC50,[3],> 40 µg/mL
same,IC50,[47],20 µg/mL
same,IC50,[4],0.2 µg/mL
same,IC50,[5],0.2 µg/mL
same,IC50,[7],20 µg/mL
same,IC50,[36],> 0.006 µg/mL
same,IC50,[10],0.02 µg/mL
same,IC50,[11],40 µg/mL
same,IC50,[12],0.2 µg/mL
same,IC50,[13],> 40 µg/mL
same,IC50,[14],> 40 µg/mL
same,IC50,[15],0.2 µg/mL
same,IC50,[16],40 µg/mL
same,IC50,[17],> 40 µg/mL
same,IC50,[18],0.2 µg/mL
same,IC50,[19],0.4 µg/mL
same,IC50,[20],0.4 µg/mL
same,IC50,[21],> 40 µg/mL
same,IC50,[22],> 40 µg/mL
same,IC50,[23],0.4 µg/mL
same,IC50,[24],0.21 µg/mL
same,IC50,[25],10 µg/mL
same,IC50,[26],4.3 µg/mL
same,IC50,[27],0.4 µg/mL
same,IC50,[28],> 40 µg/mL
same,IC50,[29],> 20 µg/mL
same,IC50,[30],> 20 µg/mL
